Laboratory results taken from US6733777B2, “Cationic reagents of transfection” (Qiagen GmbH, priority 1996, dated 2004).
Marks after values point to notes of the source that are not given here.

How the values were obtained:
Format in all cases: cell-based
[1] = test system: HeLaS3 cells; assay: Transfection of HeLaS3 cells with pCMVβ, β-Gal activity assay (cytofectins having three ammonium groups); details: liposome with DOPE, 0.5 μg pCMVβ
Description: (§1) N,N′,N″-trialkyl-N,N,N′,N″,N″-pentamethyl-bis-(2-ammonioethyl)ammoniumbromide Liposomes comprising compound (3) [synthesis according to Example 1B] and DOPE were prepared at 60° C., using DOPE without sonication.
(§2) Cells were incubated for 48 hours at 37° C., 5% CO2 and then lysed.
(§3) The results below (Table 7) indicate the optimal transfection efficiency of the reporter plasmid pCMVβ using the above-mentioned liposomes as a percentage of the highest transfection efficiency obtained by Lipofectamine. R indicates the number of carbons in the alkyl chain. Concentration of DOPE in each liposome may be calculated by multiply the X(DOPE) value by […].

[2] = test system: COS7 cells; assay: Transfection of COS7 cells with pCMVβ, β-Gal activity assay (cytofectins having three ammonium groups); details: liposome with DOPE, 0.5 μg pCMVβ
Description: as §1, §2, §3

[3] = test system: HeLaS3 cells; assay: Transfection of HeLaS3 cells with pCMVβ, β-Gal activity assay (variation of counter ion); details: 10-2-10 cytofectin with the given counter ion; for Results (%) (optimal transfection efficiency as percentage of the highest efficiency obtained by Lipofectamine): liposome with DOPE, 0.5 μg pCMVβ; for ranking of transfection efficiency among the counter ions (in words) / transfection efficiency compared with Lipofectamine (in words): liposomes with DOPE
Description: Liposomes were used to transfect HeLaS3 cells in vitro with the reporter plasmid pCMVβ (Clontech). […] Cells were incubated for 48 hours at 37° C., 5% CO2 and then lysed.
In similar studies in HeLaS3 cells, the same vector was transfected with liposomes comprising bromide counter ions and the cytofectin, 10-2-10 Ethandiyl-1,2-bis(decyl dimethylammonium).

[4] = X(DOPE) 0.5, without sonication
[5] = X(DOPE) 0.6, without sonication
[6] = X(DOPE) 0.7, without sonication
[7] = X(DOPE) 0.8, without sonication
[8] = X(DOPE) 0.50, without sonication
[9] = X(DOPE) 0.60, without sonication
[10] = X(DOPE) 0.70, without sonication
[11] = X(DOPE) 0.80, without sonication

Compound	Results HeLaS3 (%) (optimal transfection efficiency as percentage of the highest efficiency obtained by Lipofectamine) [1, 4]	Results HeLaS3 (%) (optimal transfection efficiency as percentage of the highest efficiency obtained by Lipofectamine) [1, 5]	Results HeLaS3 (%) (optimal transfection efficiency as percentage of the highest efficiency obtained by Lipofectamine) [1, 6]	Results HeLaS3 (%) (optimal transfection efficiency as percentage of the highest efficiency obtained by Lipofectamine) [1, 7]	Results COS7 (%) (optimal transfection efficiency as percentage of the highest efficiency obtained by Lipofectamine) [2, 4]	Results COS7 (%) (optimal transfection efficiency as percentage of the highest efficiency obtained by Lipofectamine) [2, 5]	Results COS7 (%) (optimal transfection efficiency as percentage of the highest efficiency obtained by Lipofectamine) [2, 6]	Results COS7 (%) (optimal transfection efficiency as percentage of the highest efficiency obtained by Lipofectamine) [2, 7]	Results (%) (optimal transfection efficiency as percentage of the highest efficiency obtained by Lipofectamine) [3, 8]	Results (%) (optimal transfection efficiency as percentage of the highest efficiency obtained by Lipofectamine) [3, 9]	Results (%) (optimal transfection efficiency as percentage of the highest efficiency obtained by Lipofectamine) [3, 10]	Results (%) (optimal transfection efficiency as percentage of the highest efficiency obtained by Lipofectamine) [3, 11]	ranking of transfection efficiency among the counter ions (in words) [3]	transfection efficiency compared with Lipofectamine (in words) [3]
CCCCCCCCCCCCCCCC[N+](C)(C)CC[N+](C)(CCCCCCCCCCCCCCCC)CC[N+](C)(C)CCCCCCCCCCCCCCCC.[Br-].[Br-].[Br-] [R = 16, N,N′,N″-trihexadecyl-N,N,N′,N″,N″-pentamethyl-bis-(2-ammonioethyl)-ammoniumbromide]	31%	39%	70%	75%	18%	16%	44%	38%						
Ethanediyl-1,2-bis(decyl dimethylammonium) iodide									> 3230* %	> 3230* %	686%	457%	highest transfection efficiencies	higher transfection efficiency values than transfections with Lipofectamine
CCCCCCCCCC[N+](C)(C)CC[N+](C)(C)CCCCCCCCCC.O=P([O-])(O)O.O=P([O-])(O)O [dihydrogenphosphate, Ethanediyl-1,2-bis(decyldimethylammonium) dihydrogenphosphate]									1966%	> 3230* %	580%	615%	highest transfection efficiencies	higher transfection efficiency values than transfections with Lipofectamine
CCCCCCCCCC[N+](C)(C)CC[N+](C)(CCCCCCCCCC)CC[N+](C)(C)CCCCCCCCCC.[Br-].[Br-].[Br-] [R = 10, N,N′,N″-tridecyl-N,N,N′,N″,N″-pentamethyl-bis-(2-ammonioethyl)-ammoniumbromide]	231%	222%	52%	47%	11%	9%	16%	20%						
CCCCCCCCCC[N+](C)(C)CC[N+](C)(C)CCCCCCCCCC.O=C([O-])C(=O)[O-] [oxalate, Ethanediyl-1,2-bis(decyldimethylammonium) oxalate]									275%	0%	0%	0%		
Ethanediyl-1,2-bis(decyl dimethylammonium) thiosulfate									1552%	1915%	605%	844%		higher transfection efficiency values than transfections with Lipofectamine
CCCCCCCCCCCCCCCCCC[N+](C)(C)CC[N+](C)(CCCCCCCCCCCCCCCCCC)CC[N+](C)(C)CCCCCCCCCCCCCCCCCC.[Br-].[Br-].[Br-] [R = 18, N,N′,N″-trioctadcyl-N,N,N′,N″,N″-pentamethyl-bis-(2-ammonioethyl)-ammoniumbromide]	65%	61%	80%	61%	20%	34%	79%	93%						
CCCCCCCCCC[N+](C)(C)CC[N+](C)(C)CCCCCCCCCC.O=S(=O)([O-])[O-] [sulfate, ethanediyl-1,2-bis(dimethyldecylammonium sulfate)]									879%	927%	265%	1201%		higher transfection efficiency values than transfections with Lipofectamine
CCCCCCCCCCCCCC[N+](C)(C)CC[N+](C)(CCCCCCCCCCCCCC)CC[N+](C)(C)CCCCCCCCCCCCCC.[Br-].[Br-].[Br-] [R = 14, N,N′,N″-tritetradecyl-N,N,N′,N″,N″-pentamethyl-bis-(2-ammonioethyl) ammoniumbromide]	7%	7%	9%	35%	8%	9%	12%	58%						
